Patent US20120270915A1, “FATTY ACID AMIDE HYDROLASE INHIHIBITORS FOR TREATING PAIN” (priority 2011, published 2012)
pIC50: −log10 of the molar value.

Columns and labels:
TP receptor = molecular target: T1, TP receptor (Homo sapiens, UniProt P21731); test: Prostanoid receptor antagonism (FLIPR), TP; format: cell-based; conditions: Table 2
T1 sequence (P21731 1-343): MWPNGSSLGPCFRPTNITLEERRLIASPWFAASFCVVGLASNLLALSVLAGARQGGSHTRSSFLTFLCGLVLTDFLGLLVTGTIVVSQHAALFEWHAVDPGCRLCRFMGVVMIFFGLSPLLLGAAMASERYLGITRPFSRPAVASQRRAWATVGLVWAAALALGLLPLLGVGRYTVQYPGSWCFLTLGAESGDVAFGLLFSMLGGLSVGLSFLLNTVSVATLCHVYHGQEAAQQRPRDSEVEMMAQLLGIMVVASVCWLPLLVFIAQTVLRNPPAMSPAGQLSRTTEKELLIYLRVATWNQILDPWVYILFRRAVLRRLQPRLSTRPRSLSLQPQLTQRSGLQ

IP receptor = IP receptor (Homo sapiens, UniProt P43119); test: Prostanoid receptor antagonism (FLIPR), IP; format: cell-based; conditions: Table 2, NA = inactive
Chain of IP receptor (P43119 whole entry): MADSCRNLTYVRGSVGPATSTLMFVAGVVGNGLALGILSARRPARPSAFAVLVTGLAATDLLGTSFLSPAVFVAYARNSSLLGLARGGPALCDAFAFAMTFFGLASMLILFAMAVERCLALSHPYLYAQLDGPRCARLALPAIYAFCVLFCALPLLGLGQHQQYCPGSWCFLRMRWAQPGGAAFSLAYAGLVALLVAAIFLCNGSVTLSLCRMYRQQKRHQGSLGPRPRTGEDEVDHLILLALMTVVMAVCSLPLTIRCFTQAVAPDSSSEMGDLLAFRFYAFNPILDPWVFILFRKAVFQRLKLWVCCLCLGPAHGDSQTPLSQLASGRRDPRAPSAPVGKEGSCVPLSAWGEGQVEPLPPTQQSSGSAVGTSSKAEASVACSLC

FAAH Rat brain = molecular target: T2, FAAH Rat brain (Rattus norvegicus, UniProt P97612); test: FAAH inhibitory activity, rat brain membranes, [14C]-AEA hydrolysis; format: biochemical; conditions: Table 2; rat brain; read-out: FAAH Rat brain IC50
T2 construct: from tissue; host or cells: rat brain membranes
T2 sequence (P97612 1-579): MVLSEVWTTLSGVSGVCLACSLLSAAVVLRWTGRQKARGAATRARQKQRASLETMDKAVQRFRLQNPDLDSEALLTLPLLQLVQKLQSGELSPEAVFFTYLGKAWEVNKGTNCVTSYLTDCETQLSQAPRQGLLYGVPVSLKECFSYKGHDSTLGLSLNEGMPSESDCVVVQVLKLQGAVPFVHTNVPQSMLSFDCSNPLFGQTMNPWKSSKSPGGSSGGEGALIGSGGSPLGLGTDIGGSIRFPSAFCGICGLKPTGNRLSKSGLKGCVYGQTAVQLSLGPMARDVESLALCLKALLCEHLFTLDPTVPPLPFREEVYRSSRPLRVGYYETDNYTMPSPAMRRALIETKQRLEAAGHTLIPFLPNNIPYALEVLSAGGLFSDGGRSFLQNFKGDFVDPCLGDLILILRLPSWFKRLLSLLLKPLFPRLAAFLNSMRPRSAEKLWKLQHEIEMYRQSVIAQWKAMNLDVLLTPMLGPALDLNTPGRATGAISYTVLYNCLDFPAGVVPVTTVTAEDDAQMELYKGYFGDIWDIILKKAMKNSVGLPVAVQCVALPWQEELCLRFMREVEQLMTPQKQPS
Experimental: The compounds of Examples 12, and 19 are tested for FAAH inhibitory activity as follows:
Method 1: Membranes obtained from rat brain are incubated with 2 mM [^14C]-AEA, 30 min at 37° C. at pH values ranging from 9.00 to 10.00 in presence and absence of tested compounds in a final volume of […]. Incubation is stopped by extraction with CHCl3/MeOH (1:1) and the aqueous phases containing [^14C]-Ethanolamine produced by [^14C]-AEA hydrolysis are measured.

EP1 receptor = molecular target: T3, EP1 receptor (Homo sapiens, UniProt P34995); test: Prostanoid receptor antagonism (FLIPR), EP1; format: cell-based; conditions: Table 2
T3 sequence (P34995 1-402): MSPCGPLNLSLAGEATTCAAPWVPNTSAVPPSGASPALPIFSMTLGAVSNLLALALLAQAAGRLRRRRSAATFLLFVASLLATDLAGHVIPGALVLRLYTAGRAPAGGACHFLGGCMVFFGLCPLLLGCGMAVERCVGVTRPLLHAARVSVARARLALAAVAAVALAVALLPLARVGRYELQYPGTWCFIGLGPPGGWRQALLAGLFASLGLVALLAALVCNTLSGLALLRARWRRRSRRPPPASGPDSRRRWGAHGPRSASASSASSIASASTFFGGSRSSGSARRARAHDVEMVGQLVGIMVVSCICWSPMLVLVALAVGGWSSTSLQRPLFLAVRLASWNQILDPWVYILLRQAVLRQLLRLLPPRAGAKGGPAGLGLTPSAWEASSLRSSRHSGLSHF

FP receptor = FP receptor (Homo sapiens, UniProt P43088); test: Prostanoid receptor antagonism (FLIPR), FP; format: cell-based; conditions: Table 2
Chain of FP receptor (P43088 whole entry): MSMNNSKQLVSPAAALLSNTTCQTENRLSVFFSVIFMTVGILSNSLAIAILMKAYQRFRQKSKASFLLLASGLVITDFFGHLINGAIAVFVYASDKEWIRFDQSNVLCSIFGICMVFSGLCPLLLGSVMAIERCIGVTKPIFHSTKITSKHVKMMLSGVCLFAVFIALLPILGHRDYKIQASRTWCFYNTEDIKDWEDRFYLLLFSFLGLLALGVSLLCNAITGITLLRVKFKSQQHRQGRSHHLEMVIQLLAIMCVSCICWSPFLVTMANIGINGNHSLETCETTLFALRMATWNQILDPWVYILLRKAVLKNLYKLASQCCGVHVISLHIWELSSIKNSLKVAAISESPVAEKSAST

EP4 receptor = EP4 receptor (Homo sapiens, UniProt P35408); test: Prostanoid receptor antagonism (FLIPR), EP4; format: cell-based; conditions: Table 2
Chain of EP4 receptor (P35408 whole entry): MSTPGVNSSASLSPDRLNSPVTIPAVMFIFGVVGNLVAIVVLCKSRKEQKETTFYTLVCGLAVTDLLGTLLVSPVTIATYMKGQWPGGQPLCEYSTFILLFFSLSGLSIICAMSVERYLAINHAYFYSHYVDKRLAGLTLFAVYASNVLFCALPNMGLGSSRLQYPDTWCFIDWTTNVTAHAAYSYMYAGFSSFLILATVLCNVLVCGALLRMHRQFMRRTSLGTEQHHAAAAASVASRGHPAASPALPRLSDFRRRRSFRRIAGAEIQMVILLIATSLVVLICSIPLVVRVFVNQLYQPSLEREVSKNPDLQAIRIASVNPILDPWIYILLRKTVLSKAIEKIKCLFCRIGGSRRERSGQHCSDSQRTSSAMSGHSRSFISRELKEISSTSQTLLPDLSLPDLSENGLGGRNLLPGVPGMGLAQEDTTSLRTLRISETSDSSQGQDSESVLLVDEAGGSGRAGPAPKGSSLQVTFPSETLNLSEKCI

DP receptor = molecular target: T4, DP receptor (Homo sapiens, UniProt Q13258); test: Prostanoid receptor antagonism (FLIPR), DP; format: cell-based; conditions: Table 2
T4 sequence (Q13258 1-359): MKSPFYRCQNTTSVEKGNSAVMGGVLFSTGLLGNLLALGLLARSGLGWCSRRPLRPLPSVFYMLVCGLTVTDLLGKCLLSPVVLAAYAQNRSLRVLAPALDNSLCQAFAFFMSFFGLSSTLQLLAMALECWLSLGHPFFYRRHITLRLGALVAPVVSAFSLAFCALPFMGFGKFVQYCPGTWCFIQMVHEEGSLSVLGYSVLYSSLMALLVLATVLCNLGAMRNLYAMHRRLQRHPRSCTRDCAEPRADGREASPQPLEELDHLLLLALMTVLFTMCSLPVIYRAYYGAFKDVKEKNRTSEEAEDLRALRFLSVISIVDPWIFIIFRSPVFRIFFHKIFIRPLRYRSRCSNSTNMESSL

EP2 receptor = EP2 receptor (Homo sapiens, UniProt P43116); test: Prostanoid receptor antagonism (FLIPR), EP2; format: cell-based; conditions: Table 2, NA = inactive
Chain of EP2 receptor (P43116 whole entry): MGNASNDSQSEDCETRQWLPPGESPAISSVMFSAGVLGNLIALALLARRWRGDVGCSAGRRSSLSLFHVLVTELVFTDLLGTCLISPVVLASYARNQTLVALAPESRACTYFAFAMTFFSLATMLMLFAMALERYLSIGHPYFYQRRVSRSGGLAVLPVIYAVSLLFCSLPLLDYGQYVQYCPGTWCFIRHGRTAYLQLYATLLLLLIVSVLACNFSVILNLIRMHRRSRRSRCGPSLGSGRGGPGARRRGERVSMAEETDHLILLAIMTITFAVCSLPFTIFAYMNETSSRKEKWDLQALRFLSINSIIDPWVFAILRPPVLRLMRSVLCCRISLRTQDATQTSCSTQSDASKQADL

EP3 receptor = molecular target: T5, EP3 receptor (Homo sapiens, UniProt P43115); test: Prostanoid receptor antagonism (FLIPR), EP3; format: cell-based; conditions: Table 2
T5 sequence (P43115 1-390): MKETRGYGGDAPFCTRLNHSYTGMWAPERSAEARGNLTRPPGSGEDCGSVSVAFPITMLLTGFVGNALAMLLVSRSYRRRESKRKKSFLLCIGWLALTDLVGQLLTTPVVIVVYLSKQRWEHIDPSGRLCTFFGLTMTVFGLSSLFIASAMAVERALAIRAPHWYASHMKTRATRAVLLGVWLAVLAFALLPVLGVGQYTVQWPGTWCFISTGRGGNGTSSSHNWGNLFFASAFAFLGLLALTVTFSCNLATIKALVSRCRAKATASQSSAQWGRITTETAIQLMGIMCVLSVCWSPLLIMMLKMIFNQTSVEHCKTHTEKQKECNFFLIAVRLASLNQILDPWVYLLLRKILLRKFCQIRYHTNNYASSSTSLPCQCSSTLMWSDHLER

Kb (TP receptor): 11 nM
Kb (IP receptor): 6900 nM
pIC50 (FAAH Rat brain): 6.62
Kb (EP1 receptor): 180 nM
Kb (FP receptor): 1600 nM
Kb (EP4 receptor): 160 nM
Kb (DP receptor): 40 nM
Kb (EP2 receptor): 1800 nM
Kb (EP3 receptor): 910 nM
Structure (SMILES): CCS(=O)(=O)NC(=O)CCc1ccc(OC)cc1CN1CCC[C@H]1c1nc(C(=O)NCCCCC2CCCCC2)co1 [Example 12l, (S)—N-(4-cyclohexylbutyl)-2-(1-(5-methoxy-2-(3-oxo-3-(ethylsulfonamido)propyl)benzyl)pyrrolidin-2-yl)oxazole-4-carboxamide]
